Test results reported in patent US4256746A, “Dechloromaytansinoids, their pharmaceutical compositions and method of use” (priority 1978, dated 1981).
Converted amounts (≈) assume the structure as drawn. Like-named read-outs stand apart in the source and are kept apart here.

How the values were obtained:
Tetrahymena pyriformis W = experiment: Antiprotozoal activity, growth inhibition by the serial dilution method; assay type: cell-based
Protocol: Antiprotozoal activity of compound (I) was assayed with Tetrahymena pyriformis W as the test organism and a medium composed of 20 g tryptose-peptone (Difco Co.), 1 g yeast extract, 2 g glucose, 1000 ml distilled water, 10 ml 1 M phosphate buffer (pH 7.0) as the assay medium. The microorganism was incubated at 28° C. for 44 to 48 hours and the growth inhibitory activity of compound (I) was assayed by the serial dilution method.

leukemia P-388 = experiment: Antitumor activity, life span prolongation of mice transplanted intraperitoneally with leukemia P-388 tumor cells; assay type: in vivo; conditions: i.p. once daily for 9 consecutive days
Protocol: (§1) Therapeutic tests were carried out in mice according to NCI-protocols 1,200 and 1,300, Cancer Chemother, Reports, Part 3, 1972, Vol. 3, No. 2, in which leukemia P-388 and melanoma B-16 tumor cells had been intraperitoneally transplanted, compound (I) being administered intraperitoneally once daily for 9 consecutive days.

melanoma B-16 = experiment: Antitumor activity, life span prolongation of mice transplanted intraperitoneally with melanoma B-16 tumor cells; assay type: in vivo; conditions: i.p. once daily for 9 consecutive days
Protocol: as §1

[1] = Tetrahymena pyriformis, pH 7, read-out: Antiprotozoal activity MIC (minimal inhibitory concentration)

Structure (SMILES) | MIC (Tetrahymena pyriformis W; [1]) [µg/mL] | MIC (Tetrahymena pyriformis W; Tetrahymena pyriformis W, 28° C., 44 to 48 hours, serial dilution method, pH 7.0, read-out: Antiprotozoal activity MIC (minimal inhibitory concentration)) [µg/mL] | Antitumor activities P-388 (T/C %) (leukemia P-388; 50 μg/kg) | Antitumor activities P-388 (T/C %) (leukemia P-388; 100 μg/kg) | Antitumor activities P-388 (T/C %) (leukemia P-388; 200 μg/kg) | Antitumor activities P-388 (T/C %) (leukemia P-388; 400 μg/kg) | Antitumor activities B-16 (T/C %) (melanoma B-16; 100 μg/kg) | Antitumor activities B-16 (T/C %) (melanoma B-16; 200 μg/kg) | Antitumor activities B-16 (T/C %) (melanoma B-16; 400 μg/kg) | Antitumor activities B-16 (T/C %) (melanoma B-16; 800 μg/kg)
COc1cc2cc(c1)N(C)C(=O)CC(OC(=O)CCl)C1(C)OC1C(C)C1CC(O)(NC(=O)O1)C(OC)C=CC=C(C)C2 (stereo not shown) [Dechloromaytansinol 3-chloroacetate, dechloromaytansinol 3-chloroacetate] | ≥ 4 |  |  |  |  |  |  |  |  | 
COc1cc2cc(c1)N(C)C(=O)CC(OC(=O)Cc1ccccc1)C1(C)OC1C(C)C1CC(O)(NC(=O)O1)C(OC)C=CC=C(C)C2 (stereo not shown) [Dechloromaytansinol 3-phenylacetate, dechloromaytansinol 3-phenylacetate] |  | 2 (≈ 3.08 µM) |  |  |  |  |  |  |  | 
COc1cc2cc(c1)N(C)C(=O)CC(OC(=O)[C@H](C)N(C)C(C)=O)C1(C)OC1C(C)C1CC(O)(NC(=O)O1)C(OC)C=CC=C(C)C2 (stereo partly shown) [Dechloromaytansine, dechloromaytansine] |  |  | 158 | 165 | 175 | 189 | 171 | 152 | 179 | 190
COc1cc2cc(c1)N(C)C(=O)CC(OC(=O)C1CCCCC1)C1(C)OC1C(C)C1CC(O)(NC(=O)O1)C(OC)C=CC=C(C)C2 (stereo not shown) [dechloromaytansinol 3-cyclohexanecarboxylate] | 4 (≈ 6.24 µM) |  |  |  |  |  |  |  |  | 
COc1cc2cc(c1)N(C)C(=O)CC(OC(=O)C(C)C)C1(C)OC1C(C)C1CC(O)(NC(=O)O1)C(OC)C=CC=C(C)C2 (stereo not shown) [Dechloromaytansinol 3-isobutyrate, dechloromaytansinol 3-isobutyrate] |  |  | 168 | 189 | 193 | 224 | 150 | 152 | 174 | 214
